The results in this text go back to patent US9896441B2 (Lycera Corporation, priority 2014, dated 2018).

For one assay, the target named is T1, Gal4-RORγ-LBD (Homo sapiens, UniProt P51449).
T1 construct: expressed in transfected cells
T1 sequence (P51449 269-508 limits assumed): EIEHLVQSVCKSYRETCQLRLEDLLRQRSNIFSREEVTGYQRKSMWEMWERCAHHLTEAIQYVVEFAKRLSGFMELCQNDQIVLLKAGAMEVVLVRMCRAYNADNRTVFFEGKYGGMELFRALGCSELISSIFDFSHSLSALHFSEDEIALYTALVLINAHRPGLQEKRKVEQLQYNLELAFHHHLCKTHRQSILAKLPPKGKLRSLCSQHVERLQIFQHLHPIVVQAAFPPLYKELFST
As to the kind of experiment: Gal4-RORγ Luciferase Reporter Assay in HEK-293T Cells. The assay is classed as cell-based. The note with it: HEK-293 cells, luciferase reporter. As to the method:
Assay procedures and results are described below.
In the following protocol, HEK-293 cells were transfected with a construct comprising the Gal4 DNA binding domain fused to the ligand binding domain of RORγ (Gal4-RORγ-LBD) in a pcDNA3.1neo plasmid, and also with a reporter construct comprising pGL4.31 Gal4-luciferase (Promega). Control cells were prepared similarly using empty pcDNA3.1neo and pGL4.31 vectors.
Trans-IT reagent (Mirus, 60 μL) at room temperature was added drop wise to OptiMEM (Invitrogen, 1.5 ml). This reagent mixture was mixed by inversion then incubated for 5 to 30 minutes at room temperature. It then was added to a solution of both expression vectors (5 μg each), mixed, and incubated at room temperature for about 20 minutes. HEK-293 cells were harvested from incubation flasks by removing the media, treating with TrypLE Express (Invitrogen), and incubating until the cells detached from the bottom of the flask (approximately 2-5 minutes). 10 Million cells were collected by centrifugation and re-suspended in 10 mL of Dulbecco's Modified Eagle Medium, High Glucose (DMEM, Invitrogen) containing 10% Fetal Bovine Serum and 100 IU each of penicillin and streptomycin. The re-suspended cells and the transfection mixture were added to a T75 flask, mixed and incubated overnight at 37° C. and 5% CO2.
The cells were harvested as described above, counted, and centrifuged to obtain the desired number of cells, then re-suspended in complete growth media at 0.75×10^6 cells/mL. The RORγ antagonist, ursolic acid, was added to the cells at a final concentration of […]. Cells were plated at 20 µL of cell suspension/well (10,000-15,000 cells/well) in white tissue culture treated 384 well plates. Test compounds were dissolved at 10 mM in DMSO then diluted into complete growth medium to 5× the final intended test concentration. These drug stock solutions, 5 µL/well were added to the tissue culture plate. The final DMSO concentration was 0.2%. The plates were briefly centrifuged then incubated overnight at 37° C. and 5% CO2. To conduct the assay, the tissue culture plates were allowed to equilibrate to room temperature and One-Glo luciferase reagent (Promega, 25 µL/well) was added. The plates were briefly centrifuged then incubated at room temperature for 10 minutes. The luciferase intensity was read on an Envision plate reader (Perkin Elmer). […] The luciferase signal in the absence of ursolic acid or test compound is defined at 100. The Max Response is the upper plateau in the signal as determined by line-fit using a 4-parameter logistic model in PRISM (GraphPad).

The next assay has as its target T2, RORγ-LBD (Homo sapiens, UniProt P51449).
T2 construct: made in house; host or cells: SF9 cells (baculovirus); used as diluted lysate
T2 sequence (P51449 269-508 limits assumed): T1 sequence (P51449 269-508 limits assumed)
As to the kind of experiment: RORγ-Ligand Binding Domain (LBD) TR-FRET Assay.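 On TR-FRET Assay Max Response: 665/615 nm signal ratio set to 100 without ursolic acid or test compound.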 The assay is classed as biochemical. The gist of the method:
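TR-FRET read-out using a biotin-tagged SRC1 coactivator LXXLL peptide (200 nM final), with the antagonist ursolic acid present at 2 μM final. Receptor is His-tagged LBD expressed in SF9 cells, ~3 nM final in pH 7.0 Tris/KCl/EDTA/DTT/BSA buffer; compounds in 1% DMSO final.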
(In general: Time-resolved FRET reads energy transfer from a long-lived donor to a nearby acceptor.)

Bounds are passed on as bounds.

Take `C/C(=C\c1ccc2c(c1)N(S(=O)(=O)c1cccc(C(F)(F)F)c1)[C@H](C)[C@@H](O)C2)c1c(F)cccc1Cl` (racemic) [Example 177, rac-(2R,3S)-7-((E)-2-(2-Chloro-6-fluorophenyl)prop-1-en-1-yl)-2-methyl-1-((3-(trifluoromethyl)phenyl)sulfonyl)-1,2,3,4-tetrahydroquinolin-3-ol]: the EC50 on Gal4-RORγ-LBD (in presence of ursolic acid) was 0.5 to 5 µM; at RORγ-LBD (RORγ-LBD TR-FRET assay), below 0.5 µM. The “Gal4-RORγ Assay Max Response” value at Gal4-RORγ-LBD (in presence of ursolic acid, maximum response) was “** (a value in the range of greater than 90 to 150)”. In addition, the “TR-FRET Assay Max Response” value on RORγ-LBD (RORγ-LBD TR-FRET assay, maximum response) is on record as “** (a value in the range of greater than 90 to 150)”.
Regarding `COc1cc(S(=O)(=O)N2CCCc3ccc(O[C@@H]4c5ccccc5C[C@H]4C)cc32)ccc1F` (relative stereo) [Example 25E, 1-((4-fluoro-3-methoxyphenyl)sulfonyl)-7-(((trans)-2-methyl-2,3-dihydro-1H-inden-1-yl)oxy)-1,2,3,4-tetrahydroquinoline], the EC50 on Gal4-RORγ-LBD (with ursolic acid) was 0.5 to 5 µM; at RORγ-LBD (RORγ-LBD TR-FRET) it was below 0.5 µM.
In the case of `O=C(O)CC[C@H]1CC(S(=O)(=O)c2cccc(C(F)(F)F)c2)c2cc(OCc3c(F)cccc3Cl)ccc2O1` (stereo in doubt) [Example 186A, 3-(6-((2-chloro-6-fluorobenzyl)-oxy)-4-((3-(trifluoromethyl)-phenyl)sulfonyl)chroman-2-yl)propanoic acid], the values for the EC50 at Gal4-RORγ-LBD (in presence of ursolic acid) and on RORγ-LBD (RORγ-LBD TR-FRET assay) were 0.5 to 5 µM and below 0.5 µM, respectively.
Consider `C/C(=C\c1ccc2c(c1)N(S(=O)(=O)c1cccc(C(F)(F)F)c1)CC(C(=O)O)C2)c1c(F)cccc1C(F)(F)F` (centres unmarked) [Example 15C, (E)-7-(2-(2-fluoro-6-(trifluoromethyl)phenyl)prop-1-en-1-yl)-1-((3-(trifluoromethyl)phenyl)sulfonyl)-1,2,3,4-tetrahydroquinoline-3-carboxylic acid], for which the results for the EC50 at Gal4-RORγ-LBD (with ursolic acid) and on RORγ-LBD (RORγ-LBD TR-FRET) were 0.5 to 5 µM and below 0.5 µM, respectively.
In the case of `O=C(O)C1Cc2ccc(/C=C/c3c(Cl)cccc3C(F)(F)F)cc2N(S(=O)(=O)c2cccc(C(F)(F)F)c2)C1` (centres unmarked) [Example 15D, (E)-7-(2-chloro-6-(trifluoromethyl)styryl)-1-((3-(trifluoromethyl)phenyl)sulfonyl)-1,2,3,4-tetrahydroquinoline-3-carboxylic acid], the EC50 was 0.5 to 5 µM at Gal4-RORγ-LBD (with ursolic acid) and below 0.5 µM at RORγ-LBD (RORγ-LBD TR-FRET).
As to `COc1cc(S(=O)(=O)N2CCCc3ccc(OC4CCCc5ccccc54)cc32)ccc1F` (centres unmarked) [Example 25C, 1-((4-fluoro-3-methoxyphenyl)sulfonyl)-7-((1,2,3,4-tetrahydronaphthalen-1-yl)oxy)-1,2,3,4-tetrahydroquinoline], the EC50 on Gal4-RORγ-LBD (with ursolic acid) and on RORγ-LBD (RORγ-LBD TR-FRET) was below 0.5 µM throughout.
Consider `O=S(=O)(c1cccc(C(F)(F)F)c1)N1CCCc2cc(OCc3c(F)cccc3Cl)ccc21` [Example 25J, 6-((2-chloro-6-fluorobenzyl)oxy)-1-((3-(trifluoromethyl)phenyl)sulfonyl)-1,2,3,4-tetrahydroquinoline], for which the figures for the EC50 at Gal4-RORγ-LBD (with ursolic acid) and on RORγ-LBD (RORγ-LBD TR-FRET) were 0.5 to 5 µM and below 0.5 µM, respectively.
For `COc1cc(S(=O)(=O)N2CCCc3ccc(OCc4c(Cl)cccc4Cl)cc32)ccc1F` [Example 25P, 7-((2,6-dichlorobenzyl)oxy)-1-((4-fluoro-3-methoxyphenyl)sulfonyl)-1,2,3,4-tetrahydroquinoline], in that order: below 0.5 µM and below 0.5 µM.
Taken in the same sequence, the figures for `COc1cc(S(=O)(=O)N2CCCc3ccc(OCc4c(Cl)cccc4C(F)(F)F)cc32)ccc1F` [Example 25Q, 7-((2-chloro-6-(trifluoromethyl)benzyl)oxy)-1-((4-fluoro-3-methoxyphenyl)sulfonyl)-1,2,3,4-tetrahydroquinoline] were below 0.5 µM and below 0.5 µM.
In the case of `COc1cc(S(=O)(=O)N2CCCc3ccc(OCc4c(F)cccc4C(F)(F)F)cc32)ccc1F` [Example 25R, 1-((4-fluoro-3-methoxyphenyl)sulfonyl)-7-((2-fluoro-6-(trifluoromethyl)benzyl)oxy)-1,2,3,4-tetrahydroquinoline], the EC50 at Gal4-RORγ-LBD (with ursolic acid) and at RORγ-LBD (RORγ-LBD TR-FRET) was below 0.5 µM each time.
As for `COc1cc(S(=O)(=O)N2CCCc3ccc(OCc4c(C)cccc4Cl)cc32)ccc1F` [Example 25W, 7-((2-chloro-6-methylbenzyl)oxy)-1-((4-fluoro-3-methoxyphenyl)sulfonyl)-1,2,3,4-tetrahydroquinoline], the EC50 on Gal4-RORγ-LBD (with ursolic acid) and at RORγ-LBD (RORγ-LBD TR-FRET) was below 0.5 µM throughout.
Turning to `COC(=O)C(C)(C)C[C@@H]1Cc2ccc(OCc3c(F)cccc3Cl)cc2N(S(=O)(=O)c2ccc(F)c(OC)c2)C1` [Example 26, (S)-Methyl 3-(7-((2-chloro-6-fluorobenzyl)oxy)-1-((4-fluoro-3-methoxyphenyl)sulfonyl)-1,2,3,4-tetrahydroquinolin-3-yl)-2,2-dimethylpropanoate], the EC50 at Gal4-RORγ-LBD (with ursolic acid) and on RORγ-LBD (RORγ-LBD TR-FRET) was below 0.5 µM each time.
Consider `COc1cc(S(=O)(=O)N2C[C@H](CC(C)(C)C(=O)O)Cc3ccc(OCc4c(F)cccc4Cl)cc32)ccc1F` [Example 27, (S)-3-(7-((2-Chloro-6-fluorobenzyl)oxy)-1-((4-fluoro-3-methoxyphenyl)sulfonyl)-1,2,3,4-tetrahydroquinolin-3-yl)-2,2-dimethylpropanoic acid], for which the EC50 on Gal4-RORγ-LBD (with ursolic acid) and at RORγ-LBD (RORγ-LBD TR-FRET) was below 0.5 µM in each case.
Take `COC(=O)CC[C@H]1CN(S(=O)(=O)c2cccc(C(F)(F)F)c2)c2cc(/C(C)=C/c3c(F)cccc3Cl)ccc2O1` [Example 31, (S,E)-Methyl 3-(6-(1-(2-chloro-6-fluorophenyl)prop-1-en-2-yl)-4-((3-(trifluoromethyl)phenyl)sulfonyl)-3,4-dihydro-2H-benzo[b][1,4]oxazin-2-yl)propanoate]: the half-maximal effective concentration (EC50) on Gal4-RORγ-LBD (with ursolic acid) is 0.5 to 5 µM; at RORγ-LBD (RORγ-LBD TR-FRET) it was below 0.5 µM.
For `C/C(=C\c1c(F)cccc1Cl)c1ccc2c(c1)N(S(=O)(=O)c1cccc(C(F)(F)F)c1)C[C@H](CCC(=O)O)O2` [Example 32, (S,E)-3-(6-(1-(2-Chloro-6-fluorophenyl)prop-1-en-2-yl)-4-((3-(trifluoromethyl)phenyl)sulfonyl)-3,4-dihydro-2H-benzo[b][1,4]oxazin-2-yl)propanoic acid], in that order: 5 to 10 µM and below 0.5 µM.
Taken in the same sequence, the figures for `CCOc1ncc(C(F)(F)F)cc1S(=O)(=O)N1C[C@H](CCC(=O)OC)Oc2ccc(/C=C(\C)c3c(F)cccc3Cl)cc21` [Example 33, (S,E)-Methyl 3-(6-(2-(2-chloro-6-fluorophenyl)prop-1-en-1-yl)-4-((2-ethoxy-5-(trifluoromethyl)pyridin-3-yl)sulfonyl)-3,4-dihydro-2H-benzo[b][1,4]oxazin-2-yl)propanoate] were 0.5 to 5 µM and below 0.5 µM.
Taken in the same sequence, the figures for `CCOc1ncc(C(F)(F)F)cc1S(=O)(=O)N1C[C@H](CCC(=O)O)Oc2ccc(/C=C(\C)c3c(F)cccc3Cl)cc21` [Example 34, (S,E)-3-(6-(2-(2-Chloro-6-fluorophenyl)prop-1-en-1-yl)-4-((2-ethoxy-5-(trifluoromethyl)pyridin-3-yl)sulfonyl)-3,4-dihydro-2H-benzo[b][1,4]oxazin-2-yl)propanoic acid] were 0.5 to 5 µM and below 0.5 µM.
With `CC/C(=C\c1ccc2c(c1)N(S(=O)(=O)c1cccc(C(F)(F)F)c1)C[C@H](CCC(=O)OC)O2)c1ccccc1Cl` [Example 35, Methyl (S,E)-3-(6-(2-(2-chlorophenyl)but-1-en-1-yl)-4-((3-(trifluoromethyl)phenyl)sulfonyl)-3,4-dihydro-2H-benzo[b][1,4]oxazin-2-yl)propanoate], the EC50 at Gal4-RORγ-LBD (with ursolic acid) is 0.5 to 5 µM; at RORγ-LBD (RORγ-LBD TR-FRET), below 0.5 µM.

One may read the EC50 as the concentration at which the effect is half-maximal.
